As a reminder, the IC50 is the concentration that inhibits the measured activity by half.

For the experiment, the target named is Acetylcholinesterase (Electrophorus electricus, UniProt O42275). Description: Inhibition of electric eel AChE by modified Ellman method. In general terms: In Ellman's method for cholinesterases, released thiocholine reacts with DTNB.
Acetylcholinesterase, sequence (O42275 whole entry): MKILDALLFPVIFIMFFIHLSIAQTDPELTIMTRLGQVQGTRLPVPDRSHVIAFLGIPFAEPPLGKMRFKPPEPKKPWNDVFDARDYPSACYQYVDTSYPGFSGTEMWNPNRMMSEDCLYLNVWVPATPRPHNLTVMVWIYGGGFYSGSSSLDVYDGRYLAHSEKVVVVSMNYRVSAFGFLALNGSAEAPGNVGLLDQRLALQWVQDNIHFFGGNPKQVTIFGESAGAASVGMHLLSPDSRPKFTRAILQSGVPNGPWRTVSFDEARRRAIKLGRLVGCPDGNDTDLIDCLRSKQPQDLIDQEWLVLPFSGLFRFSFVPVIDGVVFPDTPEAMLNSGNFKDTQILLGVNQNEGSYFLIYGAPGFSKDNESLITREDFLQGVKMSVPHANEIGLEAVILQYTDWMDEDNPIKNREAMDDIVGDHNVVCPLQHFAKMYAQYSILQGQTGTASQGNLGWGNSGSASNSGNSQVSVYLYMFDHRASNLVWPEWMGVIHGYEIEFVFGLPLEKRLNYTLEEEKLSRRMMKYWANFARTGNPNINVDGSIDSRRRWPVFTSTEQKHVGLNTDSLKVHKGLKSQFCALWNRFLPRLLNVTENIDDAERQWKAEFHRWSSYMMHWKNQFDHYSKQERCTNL
For `O=C1/C(=C/c2ccccc2)CN2CC13[C@@H](c1ccccc1)C1CCCN1C31C(=O)c3ccccc3C21O` (stereo not given in full), the half-inhibitory concentration (IC50) came to 6.86 µM.

`Cc1ccccc1/C=C1\CN2CC3(C1=O)[C@@H](c1ccccc1C)C1CCCN1C31C(=O)c3ccccc3C21O` (stereo not given in full) had a 50% inhibitory concentration (IC50) of 1.2 µM.

`O=C1/C(=C/c2ccccc2Cl)CN2CC13[C@@H](c1ccccc1Cl)C1CCCN1C31C(=O)c3ccccc3C21O` (stereo not given in full) showed an IC50 of 5.12 µM.

`O=C1/C(=C/c2ccc(Cl)cc2Cl)CN2CC13[C@@H](c1ccc(Cl)cc1Cl)C1CCCN1C31C(=O)c3ccccc3C21O` (stereo not given in full): the half-inhibitory concentration (IC50) was 12.2 µM.

`O=C1/C(=C/c2cccc([N+](=O)[O-])c2)CN2CC13[C@@H](c1cccc([N+](=O)[O-])c1)C1CCCN1C31C(=O)c3ccccc3C21O` (stereo not given in full): the IC50 was 6.2 µM.

Molecule `Cc1ccc(/C=C2\CN3CC4(C2=O)[C@@H](c2ccc(C)cc2)C2CCCN2C42C(=O)c4ccccc4C32O)cc1` (stereo not given in full) displayed an IC50 of 0.72 µM.

In turn, `O=C1/C(=C/c2ccc(Cl)cc2)CN2CC13[C@@H](c1ccc(Cl)cc1)C1CCCN1C31C(=O)c3ccccc3C21O` (stereo not given in full) gave an IC50 of 11.2 µM.

`O=C1/C(=C/c2ccc(Br)cc2)CN2CC13[C@@H](c1ccc(Br)cc1)C1CCCN1C31C(=O)c3ccccc3C21O` (stereo not given in full) showed a 50% inhibitory concentration (IC50) of 9.26 µM.

With `O=C1/C(=C/c2ccc(F)cc2)CN2CC13[C@@H](c1ccc(F)cc1)C1CCCN1C31C(=O)c3ccccc3C21O` (stereo not given in full), inhibition was half-maximal at 11.3 µM (IC50).

The molecule `O=C1/C(=C/c2cccc3ccccc23)CN2CC13[C@@H](c1cccc4ccccc14)C1CCCN1C31C(=O)c3ccccc3C21O` (stereo not given in full) registered a 50% inhibitory concentration (IC50) of 2.12 µM.

For the origin of these results see ChEMBL document CHEMBL1795302, “Synthesis and discovery of novel hexacyclic cage compounds as inhibitors of acetylcholinesterase” (Bioorg Med Chem Lett, 2011).
